# Where two headings read alike, the source gives them in different places.
# Tests used:
# [1] = tested on: neutrophils; assay: Checkerboard analysis for chemotactic activity of the peptide itself; format: cell-based, human
# Description: (§1) Chemotaxis was performed using the leading front method as described by Zigmond and Hirsh (1973). IL-8 or controls were placed in the lower well of a Boyden chamber. A five micron pore size, 100 μm. thick cellulose nitrate filter (Sartorius Filter,. Inc., San Francisco, Calif.) was placed on the surface and the chamber was then assembled. A 200 μl aliquot of the neutrophil preparation (1×10^6 cells/ml) in RPMI-1640 media containing 1% BSA was added to the top of the filter and incubated at 37° C. for 30 min. The filter was then fixed, stained and mounted on a glass microscope slide. The leading front was determined by the position of the leading two cells. The distance that the leading two cells had moved through the filter was measured for six fields on each filter. The measurements were made with four filters for each set of conditions.
# [2] = Hs 294T culture, 100 μM peptide
# Description: Analysis for the breakdown of Antileukinate in the culture of Hs 294T cells. A total concentration of tritium labeled and unlabeled Antileukinate of 100 μM, was added to the culture of Hs 294T cells. Aliquots of medium were removed at different times and chromatographed on an HPLC Bondapak C18 reversed phase column. The peptides were eluted using a gradient from 0.1% TFA to 80% acetonitrile in 0.1% TFA. One milliliter fractions were collected and measured for their radioactivity using a liquid scintillation counter. The chromatographs show the elution volume of the radioactivity at different times after addition to the cells.
# Hs 294T and Hep G2 cells, 2×10^4 cell/well, were cultured in 24 well tissue culture plates for 24 hr. Then the culture media were replaced with media containing tritiated Antileukinate, 0.2 μCi, mixed with 100 μM unlabeled peptide in each well. The cells were then cultured for the indicated periods. The supernatants were collected and stored at −70° C. until use. The breakdown of Antileukinate during the cell culture was analyzed on high performance liquid chromatography (HPLC) using an analytical C18 reversed phase column (Waters Co., New Bedford, Mass.). […] One milliliter fractions were collected and measured for their radioactivity content using a liquid scintillation counter.
# [3] = tested on: human neutrophils; assay: Binding of the peptide to human neutrophils
# [4] = tested on: A375P melanoma cells; assay: Tumor cell growth, A375P; format: cell-based
# [5] = tested on: IL-8-induced neutrophil chemotaxis; assay: Neutrophil chemotaxis stimulated by IL-8 (leading front, Boyden chamber); format: cell-based, human
# Description: (§2) FIG. 7. The Effect of Ac-RRWWCR-NH2 (SEQ ID NO:1) on Neutrophil Chemotaxis. Chemotaxis was performed in the presence of increasing concentration of Ac-RRWWCR-NH2 (SEQ ID NO:1) in both upper and lower chamber. Stimulants added to lower chamber were 10 nM IL-8 (●), 10 nM fMLP (▪), or media alone (◯) as control. Analysis of variance was used for multiple comparison.
# as §1
# [6] = tested on: fMLP-induced neutrophil chemotaxis; assay: Neutrophil chemotaxis stimulated by fMLP; format: cell-based, human; conditions: 10 nM fMLP
# Description: as §2, §1
# [7] = tested on: Hep G2 liver cancer cells; assay: Cell growth assay, Hep G2; format: cell-based; conditions: 72 hr
# Description: FIG. 15C. The effect of Antileukinate on the growth of melanoma cells. Melanoma cell lines and a control liver cancer cell line (2×10^4 cells/well) in 500 μl were cultured in a 24 well tissue culture plate in the presence of various concentrations of Antileukinate for 3 d. The culture media were changed to fresh media containing the same concentration of Antileukinate every 24 hr during the incubation period. After incubation, the cells were collected and the cell number was counted using a hemocytometer. Liver cancer cell line, Hep G2. Analysis of variance was used for multiple comparison.
# The cell lines (2×10^4 cells/well) in 500 μl cell culture medium were grown in 24 well tissue culture plates. After the cells adhered to the plate, the supernatants were aspirated and 500 μl of media containing various concentrations of Antileukinate were added to the wells. The cells were cultured for period indicated in the text. The culture media were changed to fresh media every 24 hr. After incubation, the cells were detached with trypsin-EDTA solution (Life Technologies Inc., Gaithersburg, Md., containing 0.05% of trypsin and 0.53 mM of EDTA in Hanks Balanced Salt Solution without Ca^2+ and Mg^2+) and the cell number was counted using a hemocytometer.
# [8] = 100 μM peptide, 72 hr, trypan blue dye exclusion
# Description: The viability of Hs 294T cells after the culture for 72 hr in the presence of Antileukinate. Melanoma cell line Hs 294T was cultured in the presence of various concentrations of Antileukinate for 72 hr. The viability of the cells was measured by means of trypan blue dye exclusion.
# [9] = tested on: DU145 (adenocarcinoma of prostate); assay: Growth of DU145, MTT assay; format: cell-based; conditions: DU145, serum-starved, 24 hours
# Description: FIG. 18. The effect of Antileukinate on growth of DU145 (adenocarcinoma of prostate) cell line. Serum-starved DU145 were incubated with the indicated concentrations of Antileukinate for 24 hours. MTT assay was then performed. Cell umber was decreased in a dose-dependent manner and there are significant differences from controls at concentrations greater than, or equal to 100 μM of Antileukinate (p<0.05).
# [10] = tested on: C8161 melanoma cells; assay: Tumor cell growth, C8161; format: cell-based
# [11] = tested on: Hs 294T; conditions: 16 hr
# Description: The cell lines (4×10^5 cells/well) in RPMI-1640 medium containing 10% fetal bovine serum were incubated with 10 μCi of Na2^51CrO4 (DuPont NEN Co.) for 60 min at 37° C. in a 24 well tissue culture plate. The cells were washed 3 times and then incubated in cell culture medium for 30 min at 37° C. to allow spontaneous lysis of marginally viable cells. […] The cells were cultured for 16 hr at 37° C. and then the radioactivity in the supernatants was counted in a gamma radiation spectrometer. Quadriplicate wells received cell culture medium alone or 2% SDS to determine spontaneous and maximum release, respectively. The percentage lysis was calculated by using the following formula: [formula]
# [12] = peptide below filter 1.0 μM, above filter 5.0 μM
# [13] = peptide below filter 1.0 μM, above filter 12.5 μM
# [14] = peptide below filter 1.0 μM, above filter 25.0 μM
# [15] = peptide below filter 5.0 μM, above filter 1.0 μM
# [16] = peptide below filter 5.0 μM, above filter 12.5 μM
# [17] = peptide below filter 5.0 μM, above filter 25.0 μM
# [18] = peptide below filter 12.5 μM, above filter 1.0 μM
# [19] = peptide below filter 12.5 μM, above filter 5.0 μM
# [20] = peptide below filter 12.5 μM, above filter 25.0 μM
# [21] = peptide below filter 25.0 μM, above filter 1.0 μM
# [22] = peptide below filter 25.0 μM, above filter 5.0 μM
# [23] = peptide below filter 25.0 μM, above filter 12.5 μM
substance,measurement,setting,value
RRWWCR [Ac-RRWWCR-NH2],chemotactic activity of the peptide (checkerboard analysis),[1],not chemotactic for neutrophils
same,effect on chemokinesis of neutrophils,"[1]; control studies, media alone",had no effect on chemokinesis
same,"migration, mean ± SD of experimental observations","[1]; peptide below filter 1.0 μM, above filter 1.0 μM",27.8 ± 5.5
same,"calculated migration expected if cells responded to absolute concentration, not gradient",[1]; [12],29.1
same,"migration, mean ± SD of experimental observations",[1]; [12],28.0 ± 4.7
same,"calculated migration expected if cells responded to absolute concentration, not gradient",[1]; [13],24.2
same,"migration, mean ± SD of experimental observations",[1]; [13],25.6 ± 4.0
same,"calculated migration expected if cells responded to absolute concentration, not gradient",[1]; [14],24.3
same,"migration, mean ± SD of experimental observations",[1]; [14],26.7 ± 6.3
same,"calculated migration expected if cells responded to absolute concentration, not gradient",[1]; [15],28.0
same,"migration, mean ± SD of experimental observations",[1]; [15],29.6 ± 6.3
same,"migration, mean ± SD of experimental observations","[1]; peptide below filter 5.0 μM, above filter 5.0 μM",29.3 ± 7.2
same,"calculated migration expected if cells responded to absolute concentration, not gradient",[1]; [16],23.7
same,"migration, mean ± SD of experimental observations",[1]; [16],24.2 ± 5.4
same,"calculated migration expected if cells responded to absolute concentration, not gradient",[1]; [17],24.4
same,"migration, mean ± SD of experimental observations",[1]; [17],25.9 ± 6.7
same,"calculated migration expected if cells responded to absolute concentration, not gradient",[1]; [18],28.4
same,"migration, mean ± SD of experimental observations",[1]; [18],27.0 ± 5.5
same,"calculated migration expected if cells responded to absolute concentration, not gradient",[1]; [19],28.5
same,"migration, mean ± SD of experimental observations",[1]; [19],27.5 ± 4.8
same,"migration, mean ± SD of experimental observations","[1]; peptide below filter 12.5 μM, above filter 12.5 μM",22.9 ± 5.9
same,"calculated migration expected if cells responded to absolute concentration, not gradient",[1]; [20],24.5
same,"migration, mean ± SD of experimental observations",[1]; [20],24.8 ± 5.8
same,"calculated migration expected if cells responded to absolute concentration, not gradient",[1]; [21],28.4
same,"migration, mean ± SD of experimental observations",[1]; [21],30.9 ± 4.7
same,"calculated migration expected if cells responded to absolute concentration, not gradient",[1]; [22],27.1
same,"migration, mean ± SD of experimental observations",[1]; [22],27.5 ± 4.9
same,"calculated migration expected if cells responded to absolute concentration, not gradient",[1]; [23],23.1
same,"migration, mean ± SD of experimental observations",[1]; [23],27.9 ± 4.8
same,"migration, mean ± SD of experimental observations","[1]; peptide below filter 25.0 μM, above filter 25.0 μM",24.7 ± 3.8
same,time within which the peptide is substantially eliminated from the culture,[2],≤ 24 h
same,decrease of the major radioactivity peak (intact peptide),[2]; after 24 hr,more than 85%
same,binding of the peptide to human neutrophils,[3],binds to human neutrophils
same,effect on cell growth,[4],suppresses the growth
same,peptide concentration significantly suppressing chemotaxis,[5]; chemotaxis induced by 10 nM IL-8,50 lM
same,peptide concentration significantly inhibiting chemotaxis,[5]; neutrophils stimulated with 10 nM IL-8,50 µM
same,effect on chemotaxis induced by fMLP,[6],had no effect on chemotaxis
same,effect on growth of Hep G2 liver cancer cells,[7],did not affect the growth
same,viability of Hs 294T cells,[8],greater than 92%
same,concentrations with significant difference in cell number from controls (p<0.05),[9],≥ 100 µM
same,effect on cell growth,[10],suppresses the growth
same,% cell lysis,[11]; 1 μM peptide,−4.0 ± 5.2%
same,% cell lysis,[11]; 5 μM peptide,−3.2 ± 7.2%
same,% cell lysis,[11]; 20 μM peptide,−1.6 ± 3.7%
same,% cell lysis,[11]; 100 μM peptide,2.4 ± 7.9%
